Test results taken from US20260285850A1, “SUBSTITUTED OXAZOLIDINONES AND IMIDAZOLINONES AS HERBICIDES” (FMC CORPORATION, priority 2023, published 2026).

Assays:
Format in all cases: in vivo
[1] = test system: galium (catchweed bedstraw, Galium aparine); assay: Test A postemergence application, visual injury rating 0-100
Summary of the method: (§1)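 Grow plants in loam soil blended with sand. Apply formulated compound (non-phytotoxic solvent, surfactant) as a directed soil spray before emergence, or to plants at the one- to two-leaf stage after emergence. Hold in greenhouse 10 days, then rate injury visually versus untreated controls on a 0-100 scale.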

[2] = test system: green foxtail (Setaria viridis); assay: as above
Summary of the method: as §1

[3] = test system: blackgrass (Alopecurus myosuroides); assay: as above
Summary of the method: as §1

[4] = test system: ragweed (common ragweed, Ambrosia artemisiifolia); assay: as above
Summary of the method: as §1

corn (Zea mays) [5] = assay: as above
Summary of the method: as §1

[6] = test system: oat, wild (wild oat, Avena fatua); assay: as above
Summary of the method: as §1

[7] = test system: wheat (Triticum aestivum); assay: as above
Summary of the method: as §1

kochia (Bassia scoparia) [8] = assay: as above
Summary of the method: as §1

soybean (Glycine max) [9] = assay: as above
Summary of the method: as §1

[10] = test system: palmer (palmer amaranth, palmer pigweed, Amaranthus palmeri); assay: as above
Summary of the method: as §1

[11] = test system: barnyardgrass (Echinochloa crus-galli); assay: as above
Summary of the method: as §1

[12] = test system: horseweed (Erigeron canadensis); assay: as above
Summary of the method: as §1

[13] = test system: ryegrass, Italian (italian ryegrass, Lolium multiflorum); assay: as above
Summary of the method: as §1

[14] = test system: sedge, umbrella (small-flower umbrella sedge, Cyperus difformis); assay: Test B flooded paddy test, visual plant response rating 0-100; settings: 250 g ai/ha, Flood, applied to paddy water, evaluated after 13 days
Summary of the method: (§2)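 Greenhouse, 13 d. Seedlings at 2-leaf stage, pots flooded to 3 cm, compound delivered into floodwater, water level held constant. Evaluated visually relative to controls.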

rice (Oryza sativa) = assay: as above; settings: 250 g ai/ha, Flood, applied to paddy water, evaluated after 13 days
Summary of the method: as §2

[15] = test system: ducksalad (Heteranthera limosa); assay: as above; settings: 250 g ai/ha, Flood, applied to paddy water, evaluated after 13 days
Summary of the method: as §2

[16] = test system: barnyardgrass (Echinochloa crusgalli); assay: as above; settings: 250 g ai/ha, Flood, applied to paddy water, evaluated after 13 days
Summary of the method: as §2

[17] = test system: green foxtail (Setaria viridis); assay: Test A preemergence soil spray, visual injury rating 0-100; settings: 10 days
Summary of the method: as §1

[18] = test system: blackgrass (Alopecurus myosuroides); assay: as above; settings: 10 days
Summary of the method: as §1

[19] = test system: ragweed (common ragweed, Ambrosia artemisiifolia); assay: as above; settings: 10 days
Summary of the method: as §1

corn (Zea mays) [20] = assay: as above; settings: 10 days
Summary of the method: as §1

[21] = test system: oat, wild (wild oat, Avena fatua); assay: as above; settings: 10 days
Summary of the method: as §1

[22] = test system: wheat (Triticum aestivum); assay: as above; settings: 10 days
Summary of the method: as §1

kochia (Bassia scoparia) [23] = assay: as above; settings: 10 days
Summary of the method: as §1

soybean (Glycine max) [24] = assay: as above; settings: 10 days
Summary of the method: as §1

[25] = test system: palmer (palmer amaranth, palmer pigweed, Amaranthus palmeri); assay: as above; settings: 10 days
Summary of the method: as §1

[26] = test system: barnyardgrass (Echinochloa crus-galli); assay: as above; settings: 10 days
Summary of the method: as §1

[27] = test system: ryegrass, Italian (italian ryegrass, Lolium multiflorum); assay: as above; settings: 10 days
Summary of the method: as §1

[28] = 62 g ai/ha, postemergence, 10 days, 0 = no effect, 100 = complete control
[29] = Postemergence, 16 g ai/ha, greenhouse 10 days, 0 no effect, 100 complete control
[30] = 62 g ai/ha, 0 = no effect, 100 = complete control

CC(C)COC(=O)C1=CCC(NC(=O)C2(C)CN(c3cc(F)cc(Cl)c3)C(=O)O2)C1 (stereo not shown) [Compound 143]
60: Plant response rating, Ducksalad (0 to 100 scale, 0 is no effect and 100 is complete control) [15]
45: Plant response rating, Sedge, Umbrella (0 to 100 scale, 0 is no effect and 100 is complete control) [14]
40: Plant response rating, Barnyardgrass (0 to 100 scale, 0 is no effect and 100 is complete control) [16]
0: Galium plant response rating (0-100) [1, 28] | Galium plant response rating (0 to 100 scale) [1, 29] | Foxtail, Green plant response rating (0-100) [2, 28] | Foxtail, Green plant response rating (0 to 100 scale) [2, 29] | Blackgrass plant response rating (0-100) [3, 28] | Blackgrass plant response rating (0 to 100 scale) [3, 29] | Ragweed plant response rating (0-100) [4, 28] | Ragweed plant response rating (0 to 100 scale) [4, 29] | Corn plant response rating (0-100) (corn (Zea mays) [5]; [28]) | Corn plant response rating (0 to 100 scale) (corn (Zea mays) [5]; [29]) | Oat, Wild plant response rating (0-100) [6, 28] | Oat, Wild plant response rating (0 to 100 scale) [6, 29] | Wheat plant response rating (0-100) [7, 28] | Wheat plant response rating (0 to 100 scale) [7, 29] | Kochia plant response rating (0-100) (kochia (Bassia scoparia) [8]; [28]) | Kochia plant response rating (0 to 100 scale) (kochia (Bassia scoparia) [8]; [29]) | Soybean plant response rating (0-100) (soybean (Glycine max) [9]; [28]) | Soybean plant response rating (0 to 100 scale) (soybean (Glycine max) [9]; [29]) | Pigweed, Palmer plant response rating (0-100) [10, 28] | Pigweed, Palmer plant response rating (0 to 100 scale) [10, 29] | Barnyardgrass plant response rating (0-100) [11, 28] | Barnyardgrass plant response rating (0 to 100 scale) [11, 29] | Horseweed plant response rating (0-100) [12, 28] | Horseweed plant response rating (0 to 100 scale) [12, 29] | Ryegrass, Italian plant response rating (0-100) [13, 28] | Ryegrass, Italian plant response rating (0 to 100 scale) [13, 29] | Foxtail, Green plant response rating ([17]; 16 g ai/ha, 0 to 100 scale) | Foxtail, Green plant response rating (0-100) [17, 30] | Blackgrass plant response rating ([18]; 16 g ai/ha, 0 to 100 scale) | Blackgrass plant response rating (0-100) [18, 30] | Ragweed plant response rating ([19]; 16 g ai/ha, 0 to 100 scale) | Ragweed plant response rating (0-100) [19, 30] | Corn plant response rating (corn (Zea mays) [20]; 16 g ai/ha, 0 to 100 scale) | Corn plant response rating (0-100) (corn (Zea mays) [20]; [30]) | Oat, Wild plant response rating ([21]; 16 g ai/ha, 0 to 100 scale) | Oat, Wild plant response rating (0-100) [21, 30] | Wheat plant response rating ([22]; 16 g ai/ha, 0 to 100 scale) | Wheat plant response rating (0-100) [22, 30] | Kochia plant response rating (kochia (Bassia scoparia) [23]; 16 g ai/ha, 0 to 100 scale) | Kochia plant response rating (0-100) (kochia (Bassia scoparia) [23]; [30]) | Soybean plant response rating (soybean (Glycine max) [24]; 16 g ai/ha, 0 to 100 scale) | Soybean plant response rating (0-100) (soybean (Glycine max) [24]; [30]) | Pigweed, Palmer plant response rating ([25]; 16 g ai/ha, 0 to 100 scale) | Pigweed, Palmer plant response rating (0-100) [25, 30] | Barnyardgrass plant response rating ([26]; 16 g ai/ha, 0 to 100 scale) | Barnyardgrass plant response rating (0-100) [26, 30] | Ryegrass, Italian plant response rating ([27]; 16 g ai/ha, 0 to 100 scale) | Ryegrass, Italian plant response rating (0-100) [27, 30]
10: Plant response rating, Rice (0 to 100 scale, 0 is no effect and 100 is complete control) (rice (Oryza sativa))
